Consider 16 molecules from patent publication US12643910B2, “Substituted pyrazolo[3,4-b]pyridines as ectonucleotide pyrophosphatase/phosphodiesterase 1 (ENPP1) modulators” (SANFORD BURNHAM PREBYS MEDICAL DISCOVERY INSTITUTE, priority 2019, dated 2026).

One experiment addresses T1, human ENPP1 (Homo sapiens, UniProt P22413).
T1 construct: made in house
T1 sequence (P22413 1-925): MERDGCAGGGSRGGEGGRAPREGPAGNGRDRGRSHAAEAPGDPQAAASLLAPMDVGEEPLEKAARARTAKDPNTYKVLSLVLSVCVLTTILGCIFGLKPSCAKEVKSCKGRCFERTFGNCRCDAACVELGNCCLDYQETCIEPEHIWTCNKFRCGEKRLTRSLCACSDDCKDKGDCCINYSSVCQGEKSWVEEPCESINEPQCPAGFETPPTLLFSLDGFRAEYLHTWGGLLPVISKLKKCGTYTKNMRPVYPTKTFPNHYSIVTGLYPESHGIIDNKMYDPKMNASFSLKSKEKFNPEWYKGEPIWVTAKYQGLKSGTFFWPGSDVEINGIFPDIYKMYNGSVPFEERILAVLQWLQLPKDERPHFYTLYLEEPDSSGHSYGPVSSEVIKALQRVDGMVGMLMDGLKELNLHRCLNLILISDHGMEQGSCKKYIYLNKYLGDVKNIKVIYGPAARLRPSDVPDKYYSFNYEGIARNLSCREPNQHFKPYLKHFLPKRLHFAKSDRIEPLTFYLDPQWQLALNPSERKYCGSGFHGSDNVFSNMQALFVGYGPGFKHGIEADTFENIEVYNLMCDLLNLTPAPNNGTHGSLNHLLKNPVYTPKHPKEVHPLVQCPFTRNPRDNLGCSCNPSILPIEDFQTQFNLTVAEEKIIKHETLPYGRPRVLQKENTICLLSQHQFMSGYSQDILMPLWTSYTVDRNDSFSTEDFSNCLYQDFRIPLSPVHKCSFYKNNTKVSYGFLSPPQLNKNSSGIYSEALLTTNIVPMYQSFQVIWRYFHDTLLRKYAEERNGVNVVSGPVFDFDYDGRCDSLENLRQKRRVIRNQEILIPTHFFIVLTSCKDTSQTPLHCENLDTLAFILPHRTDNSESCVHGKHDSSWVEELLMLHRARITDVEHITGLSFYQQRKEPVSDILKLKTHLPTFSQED
The experiment in a line: ENPP1 assay with ATP substrate (Transcreener AMP2/GMP2 TR-FRET). It counts as biochemical. The following applies: 1 hour at room temperature. In outline: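 Reaction ran 1 h at room temperature in pH 7.5 Tris with MgCl2, TCEP, Tween 20 and 1% DMSO. ATP was added as a 300 nM stock and enzyme as an 8.5 μM stock. After EDTA stop, AMP was read by TR-FRET tracer displacement. Percent inhibition used enzyme/no-enzyme controls; IC50 was fitted with a variable slope.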

The target in another experiment is T2, ENPP3 (Homo sapiens, UniProt O14638).
T2 sequence (O14638 1-875): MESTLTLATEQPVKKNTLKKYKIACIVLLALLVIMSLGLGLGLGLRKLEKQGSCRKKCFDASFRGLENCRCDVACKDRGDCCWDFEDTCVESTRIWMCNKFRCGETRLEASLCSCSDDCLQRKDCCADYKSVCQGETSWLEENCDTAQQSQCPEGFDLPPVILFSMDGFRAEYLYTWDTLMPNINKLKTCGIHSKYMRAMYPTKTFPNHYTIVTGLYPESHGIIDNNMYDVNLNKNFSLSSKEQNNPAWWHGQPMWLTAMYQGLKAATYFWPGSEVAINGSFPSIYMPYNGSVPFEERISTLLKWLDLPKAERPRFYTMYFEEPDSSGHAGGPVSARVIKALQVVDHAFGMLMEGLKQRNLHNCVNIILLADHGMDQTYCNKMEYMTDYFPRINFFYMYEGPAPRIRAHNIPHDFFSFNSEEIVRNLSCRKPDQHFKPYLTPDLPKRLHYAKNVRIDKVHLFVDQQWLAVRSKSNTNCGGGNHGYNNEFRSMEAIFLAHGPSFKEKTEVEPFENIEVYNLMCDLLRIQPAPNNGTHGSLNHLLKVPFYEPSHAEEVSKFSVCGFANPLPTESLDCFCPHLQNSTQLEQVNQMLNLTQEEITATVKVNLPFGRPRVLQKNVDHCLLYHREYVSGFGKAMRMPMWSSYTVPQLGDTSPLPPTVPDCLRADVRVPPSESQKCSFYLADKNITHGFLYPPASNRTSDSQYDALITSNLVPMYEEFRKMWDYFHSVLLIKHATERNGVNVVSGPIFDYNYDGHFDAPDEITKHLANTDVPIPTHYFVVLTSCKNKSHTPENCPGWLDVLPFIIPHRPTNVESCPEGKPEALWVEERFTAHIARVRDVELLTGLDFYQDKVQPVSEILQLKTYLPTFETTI
The experiment in a line: ENPP3 Km ATP assay. It counts as biochemical. The note with it: ATP at Km.

Usually IC50 stands for the concentration at which inhibition is half-maximal. The low end stands for inhibition by little substance, the high end for a need for much substance. As for `Cc1csc2c(N3CCC(OCCCc4ccc(F)cc4)CC3)ncnc12` [Example 3.45, 4-(4-(3-(4-Fluorophenyl)propoxy)piperidin-1-yl)-7-methylthieno[3,2-d]pyrimidine], the IC50 against human ENPP1 and at ENPP3 was > 20 µM throughout.

Regarding `O=C(CCc1ccc(F)cc1)NC1CCN(c2ncnc3ccsc23)CC1` [Example 3.46, 3-(4-Fluorophenyl)-N-(1-(thieno[3,2-d]pyrimidin-4-yl)piperidin-4-yl)propanamide], the IC50 at human ENPP1 and against ENPP3 was > 20 µM throughout.

`Fc1ccc(CCCNC2CCN(c3ncnc4ccsc34)CC2)cc1` [Example 3.47, N-(3-(4-Fluorophenyl)propyl)-1-(thieno[3,2-d]pyrimidin-4-yl)piperidin-4-amine]: the results for the IC50 at human ENPP1 and at ENPP3 were 1 to 20 µM and > 20 µM, respectively.

Regarding `O=C(CCc1ccc(F)cc1)NC1CCN(c2ncnc3c(I)csc23)CC1` [Example 3.48, 3-(4-Fluorophenyl)-N-(1-(7-iodothieno[3,2-d]pyrimidin-4-yl)piperidin-4-yl)propanamide], the half-inhibitory concentration (IC50) against human ENPP1 is 0.1 to 1 µM; against ENPP3, > 20 µM.

For the molecule `Cn1ncc2c(N3CCC(NCCCc4ccc(F)cc4)CC3)ncnc21` [Example 3.50, N-(3-(4-Fluorophenyl)propyl)-1-(1-methyl-1H-pyrazolo[3,4-d]pyrimidin-4-yl)piperidin-4-amine], the IC50 on human ENPP1 and on ENPP3 was > 20 µM in each case.

As for `COc1cc(CCCNC2CCN(c3ncnc4c(C)csc34)CC2)ccn1` [Example 3.51, N-(3-(2-Methoxypyridin-4-yl)propyl)-1-(7-methylthieno[3,2-d]pyrimidin-4-yl)piperidin-4-amine], the IC50 is 0.1 to 1 µM against human ENPP1 and > 20 µM against ENPP3.

Turning to `Cc1nc(N2CCC(NCCCc3ccncc3)CC2)c2scc(C)c2n1` [Example 3.52, 1-(2,7-Dimethylthieno[3,2-d]pyrimidin-4-yl)-N-(3-(pyridin-4-yl)propyl)piperidin-4-amine], the concentration for half-maximal inhibition (IC50) at human ENPP1 and against ENPP3 was > 20 µM in each case.

For `Cc1csc2c(N3CCC(NCCCc4ccncc4)CC3)nc(N3CCN(C)CC3)nc12` [Example 3.53, 1-(7-Methyl-2-(4-methylpiperazin-1-yl)thieno[3,2-d]pyrimidin-4-yl)-N-(3-(pyridin-4-yl)propyl)piperidin-4-amine], the concentration for half-maximal inhibition (IC50) against human ENPP1 and on ENPP3 was > 20 µM each time.

For the molecule `CCc1nc(N2CCC(NCCCc3ccncc3)CC2)c2scc(C)c2n1` [Example 3.54, 1-(2-Ethyl-7-methylthieno[3,2-d]pyrimidin-4-yl)-N-(3-(pyridin-4-yl)propyl)piperidin-4-amine], the IC50 on human ENPP1 and against ENPP3 was > 20 µM in each case.

Take `Cc1nc(N2CCC(NCCCc3ccc(F)cc3)CC2)c2cnn(C)c2n1` [Example 3.55, 1-(1,6-Dimethyl-1H-pyrazolo[3,4-d]pyrimidin-4-yl)-N-(3-(4-fluorophenyl)propyl)piperidin-4-amine]: the IC50 against human ENPP1 and against ENPP3 was > 20 µM each time.

Regarding `Cc1csc2c(N3CCC(NCCCc4ccncc4)CC3)nc(-c3ccccn3)nc12` [Example 3.56, 1-(7-Methyl-2-(pyridin-2-yl)thieno[3,2-d]pyrimidin-4-yl)-N-(3-(pyridin-4-yl)propyl)piperidin-4-amine], the concentration for half-maximal inhibition (IC50) on human ENPP1 and against ENPP3 was > 20 µM in each case.

Consider `O=C(CCc1ccc(F)cc1)NC1CCN(c2ncnc3c(-c4ccccc4)csc23)CC1` [Example 3.57, 3-(4-Fluorophenyl)-N-(1-(7-phenylthieno[3,2-d]pyrimidin-4-yl)piperidin-4-yl)propanamide], for which the half-inhibitory concentration (IC50) against human ENPP1 and against ENPP3 was > 20 µM each time.

With `Fc1ccc(CCCNC2CCN(c3ncnc4c(-c5ccccc5)csc34)CC2)cc1` [Example 3.58, N-(3-(4-Fluorophenyl)propyl)-1-(7-phenylthieno[3,2-d]pyrimidin-4-yl)piperidin-4-amine], the figures for the IC50 against human ENPP1 and on ENPP3 were 1 to 20 µM and > 20 µM, respectively.

As for `Cc1nsc2c(N3CCC(NCCCc4ccc(F)cc4)CC3)ncnc12` [Example 3.59, N-(3-(4-Fluorophenyl)propyl)-1-(3-methylisothiazolo[4,5-d]pyrimidin-7-yl)piperidin-4-amine], the concentration for half-maximal inhibition (IC50) at human ENPP1 was 1 to 20 µM; at ENPP3, > 20 µM.

Regarding `Cc1nsc2c(=O)n(Cc3ccc(S(N)(=O)=O)cc3)cnc12` [Example 3.60, 4-((3-Methyl-7-oxoisothiazolo[4,5-d]pyrimidin-6(7H)-yl)methyl)benzenesulfonamide], the concentration for half-maximal inhibition (IC50) against human ENPP1 and on ENPP3 was 1 to 20 µM each time.

In the case of `Cc1csc2c(N3CCC(NCCCc4ccncc4)CC3)nc(-c3ccccc3)nc12` [Example 3.61, 1-(7-Methyl-2-phenylthieno[3,2-d]pyrimidin-4-yl)-N-(3-(pyridin-4-yl)propyl)piperidin-4-amine], the 50% inhibitory concentration (IC50) against human ENPP1 and on ENPP3 was > 20 µM in each case.
